Assay results reported in patent US11364232B2, “Polymer of gamma-glutamyl transpeptidase catalyzing hydrolysis-induced charge reversal and its application in the field of drug delivery” (ZHEJIANG UNIVERSITY, priority 2017, dated 2022).

Target: γ-glutamyl transpeptidase (Homo sapiens, UniProt P19440)
Assay: γ-glutamyl transpeptidase (GGT)-catalyzed hydrolysis of monomers followed by NMR
Type: biochemical
Settings: monomer 25 μM in PBS pH 7.4 (D2O), GGT 1 U/mL, 37° C.
Description: Dissolve monomers GABEA or GAEA in PBS solution (pH=7.4, prepared by D2O) and configure the monomer concentration to 25 μM in the PBS solution. γ-glutamyl transpeptidase was added into the solution respectively so that the concentration of γ-glutamyl transpeptidase in the solution is 1 U/mL. At this time, the obtained product was immediately detected by nuclear magnetic resonance. The sample was placed in a 37° C. incubator and analyzed the nuclear magnetic resonance at different times.

Sequence of γ-glutamyl transpeptidase (P19440 whole entry): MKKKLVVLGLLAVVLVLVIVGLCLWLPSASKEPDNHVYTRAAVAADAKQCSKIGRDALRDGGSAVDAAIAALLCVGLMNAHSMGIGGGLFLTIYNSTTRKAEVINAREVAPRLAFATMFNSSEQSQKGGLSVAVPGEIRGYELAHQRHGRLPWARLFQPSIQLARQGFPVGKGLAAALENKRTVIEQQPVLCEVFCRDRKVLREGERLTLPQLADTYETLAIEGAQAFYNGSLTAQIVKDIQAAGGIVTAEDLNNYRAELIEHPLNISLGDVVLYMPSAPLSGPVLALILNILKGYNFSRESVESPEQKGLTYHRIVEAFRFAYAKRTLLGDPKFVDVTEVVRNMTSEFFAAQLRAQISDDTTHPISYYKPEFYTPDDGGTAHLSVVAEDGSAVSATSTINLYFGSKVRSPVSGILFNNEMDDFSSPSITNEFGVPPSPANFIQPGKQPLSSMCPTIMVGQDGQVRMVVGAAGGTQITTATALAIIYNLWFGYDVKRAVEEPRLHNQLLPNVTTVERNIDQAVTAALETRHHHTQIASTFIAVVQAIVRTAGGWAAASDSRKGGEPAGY

hydrolysis activity of γ-glutamyl transpeptidase | SMILES
far greater than GAEA | C=CC(=O)NCCNC(=O)C(CC)NC(=O)CCC(N)C(=O)O (centres unmarked) [GABEA]
lower catalytic activity | C=CC(=O)NCCNC(=O)CCC(N)C(=O)O (centres unmarked) [GAEA]
